Laboratory results reported in patent publication US20080241254A1, “PHARMACEUTICAL COMPOSITION COMPRISING ATOVAQUONE PARTICLES” (priority 2007, published 2008).

Key:
[1] = single oral dose, presence of fatty food; cited from earlier work
[2] = cited from earlier work
[3] = Particle size of atovaquone particles, light scattering (Malvern Mastersizer); format: physicochemical; conditions: milled atovaquone particles before formulation
Description: Conventionally known particle size analysis methods can be used suitably for determining the particle size. For example, particle size measurement can be done using light-scattering methods and turbidimetric methods, sedimentation methods, such as pipette analysis technique using an Andreassen pipette, sedimentation scales, photosedimentometers and sedimentation in a centrifugal force field, pulse methods, for example using a Coulter counter, or sorting by means of gravitational or centrifugal force.
The term “d9o value” means at least 90% of atovaquone particles have volume diameter less than specified value when measured by a light scattering method, for example, Malvern Mastersizer.
Atovaquone was air jet milled using at inlet feeder air pressure of 6 kg/cm2 and inlet miller air pressure of 8 kg/cm2 at the rate of 100 g/hour. After one cycle the contents were again milled through air jet mill for second cycle to obtain the desired particle size.

d90 particle size [3]: 5.34 μm
d50 particle size ([3]; measured by Malvern): 2.42 μm
Structure (SMILES): O=C1C(O)=C(C2CCC(c3ccc(Cl)cc3)CC2)C(=O)c2ccccc21 (stereo not shown) [Atovaquone, 2-[4-(4-chlorophenyl)cyclohexyl]-3-hydroxy-1,4-naphthoquinone]
effect of fatty food on absorption [1]: increased about threefold
aqueous solubility [2]: low aqueous solubility
